Tests used:
Assay type in all cases: cell-based, Mycobacterium smegmatis
[1] = system: wild type bacterial cells 1408A; experiment: MIC of rRNA mutants, wild type bacterial cells 1408A
Protocol: (§1) The recombinants carrying the respective mutational alterations in the functional rRNA operon were colony-purified and subjected to determinations of minimal inhibitory concentrations (MIC) to determine ribosomal drug susceptibility. Cultures from single colonies were grown in LB medium supplemented with 0.05% Tween 80 and used for MIC tests in a microtiter plate format. Starting cultures contained 200 μl of bacterial cells at an optical density of 0.025 at 600 nm, and the respective drug was added in twofold series of dilution.
(§2) This was illustrated by the polymorphism of 16S rRNA position 1408 and susceptibility to 4,6-aminoglycosides with a 6′ NH3 group (e.g. gentamicin, tobramycin, kanamycin). 4,6-aminoglycosides with a 6′ NH3 group bound to the ribosomal A-site encompassing nucleotides […] and selectively targeted the bacterial ribosome, but not the eukaryotic cytoplasmic ribosome. An important polymorphism in the rRNA concerns nucleotide position 1408: prokaryotic ribosomes are characterized by an adenine, eukaryotic cytoplasmic ribosomes by a guanine. Replacing the adenine by a guanine at 16S rRNA position 1408 made the bacterial ribosome completely unsusceptible towards 4,6-amino-glycosides with a 6′ NH3 group (see Table). […]

[2] = system: mutant bacterial cells 1408G; experiment: MIC of rRNA mutants, mutant bacterial cells 1408G (human cytoplasmic nucleotide at 16S rRNA position 1408)
Protocol: as §1, §2

M. smegmatis = experiment: MIC, M. smegmatis with bacterial rRNA decoding site; design: unit not given here
Protocol: as §1
(§3) The MIC data shown below in example 5 were obtained with bacterial hybrid ribosomes carrying human and protozoan rRNA decoding sites in a method of the invention. […] Nucleotide positions depicted in bold represent residues that are specific for the corresponding eukaryotic decoding site. The part of the human and protozoan decoding sites introduced into the bacterial ribsosome is boxed. The nucleotide positions are numbered according to the numbering of homologous positions in E. coli 16S rRNA.

[3] = system: bacterial hybrid ribosomes carrying Homo sapiens mitochondrion rRNA decoding site; experiment: MIC, bacterial hybrid ribosomes carrying human mitochondrial rRNA decoding site; design: unit not given here; details: Homo sapiens mitochondrion decoding site in bacterial hybrid ribosome
Protocol: as §1, §3

[4] = system: bacterial hybrid ribosomes carrying Leishmania Trypanosoma rRNA decoding site; experiment: MIC, bacterial hybrid ribosomes carrying protozoan rRNA decoding site; design: unit not given here; details: Leishmania Trypanosoma decoding site in bacterial hybrid ribosome
Protocol: as §1, §3

Row | Compound | MIC ([1]; Mycolicibacterium smegmatis, 72 h, read-out: MIC, minimal inhibitory concentration) [µg/mL] | MIC ([2]; Mycolicibacterium smegmatis, CELLS1408G, 72 h, read-out: MIC, minimal inhibitory concentration) [µg/mL] | MIC, minimal inhibitory concentration ([1]; wild type bacterial cells 1408A, 72h at 37° C.) [µg/mL] | MIC, minimal inhibitory concentration ([2]; mutant bacterial cells 1408G, 72h at 37° C.) [µg/mL] | MIC (M. smegmatis) | MIC [3] | MIC [4]
1 | NC[C@H]1O[C@H](O[C@H]2[C@H](O)[C@@H](O[C@H]3O[C@H](CO)[C@@H](O)[C@H](N)[C@H]3O)[C@H](N)C[C@@H]2N)[C@H](N)C[C@@H]1O [Tobramycin] | 2 | > 1020 |  |  |  |  | 
2 | Gentamicin |  |  | 1 | >1024 | 1 | 64-128 | >1024
3 | Neomycin |  |  |  |  | 0.5 | 16-32 | >1024

Reference: patent US8895260B2, “Screening assay for ribosomal antibiotics” (priority 2006, dated 2014)
